The source of these data is patent US10947188B2, “Small molecule ferroptosis inducers” (THE TRUSTEES OF COLUMBIA UNIVERSITY IN THE CITY OF NEW YORK, priority 2016, dated 2021).

Values after ≈ are worked out from the molar mass of the structure shown.

For the first experiment, the system named is HT-1080 cells. The experiment is described as follows: Lethality of commercially available CIL41/70 structural analogs. The settings on record: Homo sapiens, tested once in technical triplicates. Format: cell-based. On the procedure:
1,000 cells per 36 μl were seeded in each well in 384-well plates. Lethal compounds were dissolved, and a twofold, 12-point dilution series was prepared in DMSO. Compound solutions were further diluted with media at 1:25, and 4 μl per well of the diluted solutions was added to cell cultures immediately after cells were seeded. […] When other cell-death-modulating compounds (100 nM sodium selenite, 1 μM cerivastatin, 100 μg/mL mevalonic acid) were used in cotreatments, they were supplemented to cell culture for 24 h before lethal compounds were added to cell culture, after which cells were further incubated for 24 h at 37° C. under 5% CO2. On the day of the viability measurement, we added 10 μl per well of 50% Alamar Blue diluted in media (Life Technologies) and further incubated the cells at 37° C. for 6 h. Fluorescence intensity (excitation/emission: 530/590) was measured with a Victor 3 plate reader (PerkinElmer), and the normalized viability was calculated as VL=(IL−I0)/(IV−I0), where VL, I0, IV, and IL are the normalized viability and the raw fluorescence intensities from the wells containing media, cells treated with a vehicle (negative control), and cells with the lethal compound (L), respectively. When the effect of a chemical modulator (M) on L was calculated, we instead used the equation VL|M=(IM,L−I0)/(IM,V−I0), where VL|M, IM,L and IM,V are the normalized viability, and fluorescence intensity from cells treated with […], respectively. The viability was typically measured in biological triplicate unless otherwise specified. A representative dose-response curve, the mean and standard error of normalized viability from one replicate were plotted. HT-1080 viability after modulator treatments corresponding to FIG. 3C and FIGS. 5E-5F is available in FIGS. 19A-19C.
Their lethality was tested once in HT-1080 cells in technical triplicates.
`Cc1cc(Br)ccc1OCC(=O)O/N=C(\N)Cc1ccc(Cl)cc1Cl` [CB110] displayed an EC50 of over 20 µg/mL.

`CCC(C(=O)O/N=C(\N)Cc1cccc2ccccc12)c1ccccc1` (stereo not shown) [CB111] gave an EC50 of 10.7 µg/mL (≈ 30.9 µM).

`Cc1cccc(OCC(=O)O/N=C(\N)Cc2ccc(Cl)c(Cl)c2)c1C` [CB112] displayed an EC50 of over 20 µg/mL.

As to `CC(C)(Oc1ccc(Cl)cc1)C(=O)O/N=C(\N)Cc1cccc2ccccc12` [CB113], the concentration giving a half-maximal response (EC50) was over 20 µg/mL.

Compound `N/C(Cc1cccc2ccccc12)=N\OC(=O)Cc1ccccc1[N+](=O)[O-]` [CB114] came in with an EC50 of over 20 µg/mL.

With `N/C(Cc1ccc([N+](=O)[O-])cc1)=N\OC(=O)CC(c1ccccc1)c1ccccc1` [CB115], the response was half-maximal at 2.42 µg/mL (≈ 6 µM) (EC50).

Compound `CC(C)(Oc1ccc(Cl)cc1)C(=O)O/N=C(\N)Cc1ccc(Cl)c(Cl)c1` [CB116] showed an EC50 of 5.49 µg/mL (≈ 13.2 µM).

As to `CC(C)(Oc1ccc(Cl)cc1)C(=O)O/N=C(\N)Cc1ccc([N+](=O)[O-])cc1` [CB117], the EC50 was over 20 µg/mL.

Turning to `Cc1cccc(OCC(=O)O/N=C(\N)Cc2ccc([N+](=O)[O-])cc2)c1C` [CB118], the EC50 is over 20 µg/mL.

Regarding `CC(C)(Oc1ccc(Cl)cc1)C(=O)O/N=C(\N)Cc1ccc(Cl)cc1Cl` [CB119], the EC50 was over 20 µg/mL.

`Cc1cccc(OCC(=O)O/N=C(\N)Cc2ccc(Cl)cc2Cl)c1C` [CB120] registered an EC50 of over 20 µg/mL.

In turn, `Cc1cc(C)c(C)c(OCC(=O)O/N=C(\N)Cc2cccc3ccccc23)c1` [CB121] showed an EC50 of over 20 µg/mL.

In turn, `COc1ccccc1C/C(N)=N/OC(=O)CC(c1ccccc1)c1ccccc1` [CB122] gave an EC50 of 0.98 µg/mL (≈ 2.52 µM).

Take `COc1ccccc1C/C(N)=N/OC(=O)COc1cccc(C)c1C` [CB123]: the EC50 was over 20 µg/mL.

In turn, `COc1ccc(CC(=O)O/N=C(\N)Cc2ccc(OC)c(OC)c2)cc1` [CB124] came in with an EC50 of over 20 µg/mL.

With `Cc1cc(Cl)ccc1OCC(=O)O/N=C(\N)Cc1ccc([N+](=O)[O-])cc1` [CB125], the EC50 is over 20 µg/mL.

As to `COc1ccccc1C/C(N)=N/OC(=O)COc1cc(C)cc(C)c1C` [CB126], the EC50 was determined as 9.3 µg/mL (≈ 26.1 µM).

Compound `N/C(Cc1ccc(Cl)cc1Cl)=N\OC(=O)Cc1ccccc1` [CB127] showed an EC50 of over 20 µg/mL.

The compound `N/C(Cc1ccc(Cl)cc1Cl)=N\OC(=O)CC1CCCCC1` [CB128] came in with an EC50 of over 20 µg/mL.

With `CCc1ccc(OCC(=O)O/N=C(\N)Cc2ccc([N+](=O)[O-])cc2)c(Br)c1` [CB129], the EC50 was over 20 µg/mL.

Consider `CC(C)c1ccc(OCC(=O)O/N=C(\N)Cc2ccc([N+](=O)[O-])cc2)c(Br)c1` [CB130], for which the EC50 is over 20 µg/mL.

In turn, `N/C(Cc1cccc2ccccc12)=N\OC(=O)CSc1ccccc1` [CB131] returned an EC50 of over 20 µg/mL.

Compound `Cc1ccc(CC(=O)O/N=C(\N)Cc2cccc3ccccc23)cc1` [CB132] registered an EC50 of over 20 µg/mL.

Take `N/C(Cc1ccc(Cl)cc1Cl)=N\OC(=O)CSc1ccccc1` [CB133]: the EC50 was over 20 µg/mL.

`CC(Oc1cccc(Cl)c1)C(=O)O/N=C(\N)Cc1cccc2ccccc12` (stereo not shown) [CB134] registered an EC50 of over 20 µg/mL.

The compound `N/C(Cc1ccc([N+](=O)[O-])cc1)=N\OC(=O)CCCOc1ccccc1` [CB135] yielded an EC50 of over 20 µg/mL.

Take `CCC(Oc1ccccc1)C(=O)O/N=C(\N)Cc1ccc([N+](=O)[O-])cc1` (stereo not shown) [CB136]: the EC50 was over 20 µg/mL.

In turn, `CC(Oc1cccc(Cl)c1)C(=O)O/N=C(\N)Cc1ccc(Cl)cc1Cl` (stereo not shown) [CB137] had a 50% effective concentration (EC50) of over 20 µg/mL.

In turn, `N/C(Cc1ccc(Cl)cc1Cl)=N\OC(=O)CCCOc1ccccc1` [CB138] came in with an EC50 of over 20 µg/mL.

Consider `Cc1ccc(CC(=O)O/N=C(\N)Cc2ccc([N+](=O)[O-])cc2)cc1` [CB139], for which the EC50 is over 20 µg/mL.

Consider `CCC(Oc1ccccc1)C(=O)O/N=C(\N)Cc1ccc(Cl)cc1Cl` (stereo not shown) [CB140], for which the EC50 turned out to be 8.56 µg/mL (≈ 22.5 µM).

`N/C(Cc1ccc([N+](=O)[O-])cc1)=N\OC(=O)CSc1ccccc1` [CB141] came in with an EC50 of over 20 µg/mL.

The compound `Cc1ccc(CC(=O)O/N=C(\N)Cc2ccc(Cl)cc2Cl)cc1` [CB142] registered a concentration giving a half-maximal response (EC50) of over 20 µg/mL.

Regarding `COc1ccc(CC(=O)O/N=C(\N)Cc2ccc(Cl)c(Cl)c2)cc1OC` [CB143], the EC50 is over 20 µg/mL.

In turn, `N/C(Cc1ccc([N+](=O)[O-])cc1)=N\OC(=O)COc1ccc(Cl)cc1Br` [CB144] yielded a concentration giving a half-maximal response (EC50) of over 20 µg/mL.

In turn, `CC(=O)O/N=C(N)\C(=N/Nc1ccccc1)[N+](=O)[O-]` [CB145] came in with a concentration for a half-maximal effect (EC50) of over 20 µg/mL.

In turn, `CC(=O)O/N=C(/N)Cn1nc(C)c([N+](=O)[O-])c1C` [CB146] displayed an EC50 of over 20 µg/mL.

Compound `Cc1nn(C/C(N)=N/OC(=O)C23CC4CC(CC(C4)C2)C3)c(C)c1[N+](=O)[O-]` [CB147] yielded a concentration giving a half-maximal response (EC50) of 4.88 µg/mL (≈ 13 µM).

`CCC(=O)O/N=C(\N)Cn1nc(C)c([N+](=O)[O-])c1C` [CB148] showed an EC50 of over 20 µg/mL.

In turn, `Cc1ccc(Cl)cc1N1CCN(C/C(N)=N/OC(=O)CCC(=O)NC2CCCCC2)CC1` [CD1] registered an EC50 of over 20 µg/mL.

`COc1ccc(/C=C(\C#N)C(=O)O/N=C2\CCCCCN2)cc1` [EN1] came in with an EC50 of over 20 µg/mL.

Take `COc1ccc(/C=C/C(=O)O/N=C2\CCCCCN2)cc1OC` [EN2]: a half-maximal effect (EC50) was put at 10.5 µg/mL (≈ 33 µM).

Compound `O=C(O/N=C1\CCCCCN1)C(Cl)Cl` [EN3] registered an EC50 of over 20 µg/mL.

Take `CC(Cl)(Cl)C(=O)O/N=C1\CCCCCN1` [EN4]: the EC50 was over 20 µg/mL.

Compound `Cc1ccccc1NC(=O)C/C(N)=N/OC(=O)C1CCCN1C(=O)c1ccco1` (stereo not shown) [EN5] had an EC50 of over 20 µg/mL.

`N/C(=N\OC(=O)C1CCCN1C(=O)c1cccs1)C(c1ccccc1)c1ccccc1` (stereo not shown) [EN6] gave an EC50 of over 20 µg/mL.

For `N/C(COc1ccccc1)=N\OC(=O)C1CCCN1C(=O)c1ccco1` (stereo not shown) [EN7], the EC50 is over 20 µg/mL.

With `N/C(=N\OC(=O)Cc1ccccc1F)C12CC3CC(CC(C3)C1)C2` [EN8], the EC50 is over 20 µg/mL.

Compound `N/C(CC(=O)NC1CCCCC1)=N\OC(=O)C1CCCN1C(=O)c1cccs1` (stereo not shown) [EN9] had an EC50 of over 20 µg/mL.

For `Cc1cccc(NC(=O)C/C(N)=N/OC(=O)C2CCCN2C(=O)c2ccco2)c1C` (stereo not shown) [EN10], the EC50 is over 20 µg/mL.

Compound `Cc1cc(C)cc(C(=O)NCC(=O)O/N=C(\N)CC(=O)Nc2ccc(Cl)cc2)c1` [EN11] came in with an EC50 of over 20 µg/mL.

`NC(/C=C/c1cc(C(F)(F)F)cc(C(F)(F)F)c1)=N\OC(=O)/C=C/c1ccccc1` [MB1]: the EC50 was over 20 µg/mL.

For `CC(=O)O/N=C(\N)Cc1csc2ccc(Cl)cc12` [MB5], the EC50 was over 20 µg/mL.

As for `CC(C)(C)C(=O)O/N=C(\N)Cc1ccc(-c2csnn2)cc1` [MB6], the EC50 was 6.48 µg/mL (≈ 20.4 µM).

Take `N/C(Cc1ccc(-c2csnn2)cc1)=N\OC(=O)C1CC1` [MB7]: the EC50 was over 20 µg/mL.

Consider `CC(=O)O/N=C(\N)Cc1ccc(-c2csnn2)cc1` [MB8], for which the EC50 was over 20 µg/mL.

As for `CC(C)(C)CC(=O)O/N=C(\N)C1(c2ccc(Cl)cc2Cl)CC1` [MB9], the EC50 was over 20 µg/mL.

On to `CC(=O)O/N=C(\N)COc1ccc(-c2nnco2)cc1` [MB10], for which the EC50 is over 20 µg/mL.

`CC(C)(C)C(=O)O/N=C(\N)COc1ccc(Cl)cc1Cl` [MB11]: the EC50 was over 20 µg/mL.

With `CCC(=O)O/N=C(\N)COc1ccc(Cl)cc1Cl` [MB12], the EC50 was over 20 µg/mL.

In turn, `CC(C)(C)C(=O)O/N=C(\N)Cc1cccc2ccccc12` [MB13] registered an EC50 of over 20 µg/mL.

The compound `CC(C)(C)C(=O)O/N=C(\N)COc1ccc(C(C)(C)C)cc1` [MB14] came in with an EC50 of 2.6 µg/mL (≈ 8.49 µM).

Turning to `CC(C)(C)C(=O)O/N=C(\N)CS(=O)(=O)c1ccc(Cl)cc1` [MB15], the EC50 is over 20 µg/mL.

`N/C(COc1cccc(Cl)c1)=N\OC(=O)CCn1cc(C(F)(F)F)ccc1=O` [MB16]: the EC50 is over 20 µg/mL.

Still in this experiment, the particulars now being: tested once in technical triplicates.
`COc1ccc(OCC(N)=NOC(=O)CON=C(C)c2ccc(Cl)cc2)cc1` [MB2]: the “EC50 of CIL41/70 and structural analogs (lethality)” value is recorded as “MB2 (>20 ug/mL)”.

Regarding `CC(=NOCC(=O)ON=C(N)COc1cccc(Cl)c1)c1ccc(Cl)cc1` [MB3], the “EC50 of CIL41/70 and structural analogs (lethality)” value is given as “MB3 (>20 ug/mL)”.

As for `CC(=NOCC(=O)ON=C(N)COc1ccc(Cl)cc1Cl)c1ccc(Cl)cc1` [MB4], the “EC50 of CIL41/70 and structural analogs (lethality)” value was “MB4 (>20 ug/mL)”.

One may read the EC50 as the midpoint of the concentration-response curve. A lower EC50 goes with an effect from little substance.
